Measured values reported in PubChem BioAssay (NCI).
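The concentration for 50% growth inhibition is given as GI50. TGI: total growth inhibition.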

How the values were obtained:
Experiment in all cases: DTP human tumour cell line panel, 384-well format
[1] = test system: SNB-19 CNS
[2] = test system: SF-295 CNS
[3] = test system: HCT-116 colon
[4] = test system: NCI/ADR-RES ovarian
[5] = test system: RXF 393 renal
[6] = test system: HCT-15 colon
[7] = test system: SF-539 CNS
[8] = test system: U251 glioblastoma
[9] = test system: NCI-H522 lung
[10] = test system: ACHN renal
[11] = test system: SN12C renal
[12] = test system: BT-549 breast
[13] = test system: TK-10 renal
[14] = test system: SK-MEL-2 melanoma
[15] = test system: EKVX NSCLC
[16] = test system: UACC-62 melanoma
[17] = test system: HT29 colon
[18] = test system: A549 NSCLC
[19] = test system: MDA-MB-231 breast
[20] = test system: CCRF-CEM leukemia
[21] = test system: SF-268 CNS
[22] = test system: NCI-H226 lung
[23] = test system: HS 578T breast
[24] = test system: OVCAR-3 ovarian
[25] = test system: MOLT-4 leukemia
[26] = test system: SR leukemia
[27] = test system: SK-OV-3 ovarian
[28] = test system: CAKI-1 renal
[29] = test system: OVCAR-5 ovarian
[30] = test system: K-562 leukemia
[31] = test system: UO-31 renal
[32] = test system: HL-60(TB) leukemia
[33] = test system: DU-145 prostate
[34] = test system: OVCAR-4 ovarian
[35] = test system: MALME-3M melanoma
[36] = test system: A498 renal
[37] = test system: 786-0 renal
[38] = test system: COLO 205 colon
[39] = test system: KM12 colon
[40] = test system: SW-620 colon
[41] = test system: NCI-H460 NSCLC
[42] = test system: NCI-H23 lung
[43] = test system: MDA-MB-435 melanoma
[44] = test system: SK-MEL-28 melanoma
[45] = test system: NCI-H322M lung
[46] = test system: M14 melanoma
[47] = test system: PC-3 prostate
[48] = test system: SNB-75 CNS
[49] = test system: HOP-62 NSCLC
[50] = test system: LOX IMVI melanoma
[51] = test system: SK-MEL-5 melanoma
[52] = test system: UACC-257 melanoma
[53] = test system: T-47D breast
[54] = test system: MDA-MB-468 breast
[55] = test system: HOP-92 NSCLC
[56] = test system: HCC-2998 colon
[57] = test system: OVCAR-8 ovarian
[58] = test system: RPMI-8226 leukemia
[59] = test system: IGROV1 ovarian

COc1cc2c(c(OC)n1)[C@]1(O)[C@H](O)[C@H](CN(C)C)[C@@H](c3ccccc3)[C@]1(c1ccc(C#N)cc1)O2
GI50 [1]: 12.4 nM
TGI [1]: 119 nM
GI50 [2]: 25.9 nM
TGI [2]: 81.9 nM
GI50 [3]: < 10 nM
TGI [3]: 26 nM
GI50 [4]: 138 nM
TGI [4]: 3270 nM
GI50 [5]: < 10 nM
TGI [5]: 21.8 nM
GI50 [6]: 13.1 nM
TGI [6]: 99.3 nM
GI50 [7]: < 10 nM
TGI [7]: 20.1 nM
GI50 [8]: 12.6 nM
TGI [8]: 209 nM
GI50 [9]: < 10 nM
TGI [9]: 33.7 nM
GI50 [10]: 10.2 nM
TGI [10]: 48.3 nM
GI50 [11]: < 10 nM
TGI [11]: 54.6 nM
GI50 [12]: 23.7 nM
TGI [12]: 95.7 nM
GI50 [13]: 13.7 nM
TGI [13]: 46.4 nM
GI50 [14]: < 10 nM
TGI [14]: 41.3 nM
GI50 [15]: < 10 nM
TGI [15]: 46.3 nM
GI50 [16]: 11.9 nM
TGI [16]: 57.5 nM
GI50 [17]: 22.2 nM
TGI [17]: 15600 nM
GI50 [18]: 12 nM
TGI [18]: 16000 nM
GI50 [19]: 14.6 nM
TGI [19]: 94.8 nM
GI50 [20]: < 10 nM
TGI [20]: 17.8 nM
GI50 [21]: 15.7 nM
TGI [21]: 175 nM
GI50 [22]: < 10 nM
TGI [22]: 57.5 nM
GI50 [23]: < 10 nM
TGI [23]: 40.6 nM
GI50 [24]: < 10 nM
TGI [24]: 28.2 nM
GI50 [25]: < 10 nM
TGI [25]: < 10 nM
GI50 [26]: 11.7 nM
TGI [26]: 32.8 nM
GI50 [27]: < 10 nM
TGI [27]: 1310 nM
GI50 [28]: < 10 nM
TGI [28]: 41 nM
GI50 [29]: 11 nM
TGI [29]: 58 nM
GI50 [30]: < 10 nM
TGI [30]: 10700 nM
GI50 [31]: 21.3 nM
TGI [31]: 91.6 nM
GI50 [32]: < 10 nM
TGI [32]: < 10 nM
GI50 [33]: < 10 nM
TGI [33]: 48 nM
GI50 [34]: < 10 nM
TGI [34]: 43.4 nM
GI50 [35]: < 10 nM
TGI [35]: 61.1 nM
GI50 [36]: < 10 nM
TGI [36]: 266 nM
GI50 [37]: 18.6 nM
TGI [37]: 77.6 nM
GI50 [38]: < 10 nM
TGI [38]: 120 nM
GI50 [39]: < 10 nM
TGI [39]: 72.2 nM
GI50 [40]: < 10 nM
TGI [40]: 10000 nM
GI50 [41]: < 10 nM
TGI [41]: 23.3 nM
GI50 [42]: < 10 nM
TGI [42]: 41.2 nM
GI50 [43]: < 10 nM
TGI [43]: 583 nM
GI50 [44]: 19.6 nM
TGI [44]: 67 nM
GI50 [45]: 13.9 nM
TGI [45]: 55.7 nM
GI50 [46]: < 10 nM
TGI [46]: 38.2 nM
GI50 [47]: < 10 nM
TGI [47]: 2260 nM
GI50 [48]: 16 nM
TGI [48]: 360 nM
GI50 [49]: < 10 nM
TGI [49]: 48.3 nM
GI50 [50]: < 10 nM
TGI [50]: 20.5 nM
GI50 [51]: < 10 nM
TGI [51]: 41.4 nM
GI50 [52]: 25.3 nM
TGI [52]: 420 nM
GI50 [53]: < 10 nM
TGI [53]: 53.3 nM
GI50 [54]: < 10 nM
TGI [54]: 23.1 nM
GI50 [55]: 19.5 nM
TGI [55]: 78.7 nM
GI50 [56]: < 10 nM
TGI [56]: 28.5 nM
GI50 [57]: 20.8 nM
TGI [57]: 10700 nM
GI50 [58]: < 10 nM
TGI [58]: < 10 nM
GI50 [59]: < 10 nM
TGI [59]: 13900 nM
